Measured values: ChEMBL document CHEMBL5214910, “Rational Design of Dipicolylamine-Containing Carbazole Amphiphiles Combined with Zn2+ as Potent Broad-Spectrum Antibacterial Agents with a Membrane-Disruptive Mechanism” (J Med Chem, 2021)
≈ marks a conversion by molar mass, not a printed value.

How the values were obtained:
[1] = test system: Staphylococcus aureus; assay: Antibacterial activity against Staphylococcus aureus ATCC 29213 assessed as inhibition of bacterial growth incubated for 24 hrs by Muller hinton broth based dilution assay; assay type: functional
[2] = test system: Staphylococcus aureus; assay: Antibacterial activity against Staphylococcus aureus ATCC 29213 assessed as inhibition of bacterial growth incubated for 24 hrs in the presence of 12.5 ug/mL Zn2+ by Muller hinton broth based dilution assay; assay type: functional
[3] = Hemolytic activity in rabbit RBC incubated for 1 hrs by fluorescence based microplate reader assay; assay type: toxicity, cell-based, Oryctolagus cuniculus, Erythrocyte; settings: rabbit red blood cells (erythrocytes)
[4] = test system: Pseudomonas aeruginosa; assay: Antibacterial activity Pseudomonas aeruginosa ATCC 9027 assessed as inhibition of bacterial growth incubated for 24 hrs in the presence of 12.5 ug/mL Zn2+ by Muller hinton broth based dilution assay; assay type: functional
[5] = test system: Pseudomonas aeruginosa; assay: Antibacterial activity Pseudomonas aeruginosa ATCC 9027 assessed as inhibition of bacterial growth incubated for 24 hrs by Muller hinton broth based dilution assay; assay type: functional
[6] = test system: Acinetobacter baumannii; assay: Antibacterial activity against Acinetobacter baumannii ATCC 17978 assessed as inhIbition of bacterial growth incubated for 24 hrs by Muller hinton broth based dilution assay; assay type: functional
[7] = test system: Acinetobacter baumannii; assay: Antibacterial activity against Acinetobacter baumannii ATCC 17978 assessed as inhIbition of bacterial growth incubated for 24 hrs in the presence of 12.5 ug/mL Zn2+ by Muller hinton broth based dilution assay; assay type: functional
[8] = test system: Acinetobacter baumannii; assay: Antibacterial activity against Acinetobacter baumannii R2889 assessed as inhIbition of bacterial growth incubated for 24 hrs in the presence of 12.5 ug/mL Zn2+ by Muller hinton broth based dilution assay; assay type: functional
[9] = Hemolytic activity in rabbit RBC incubated for 1 hrs in the presence of 12.5 ug/mL Zn2+ by fluorescence based microplate reader assay; assay type: toxicity, cell-based, Oryctolagus cuniculus, Erythrocyte; settings: rabbit red blood cells (erythrocytes)
[10] = test system: Escherichia coli; assay: Antibacterial activity Escherichia coli ATCC 25922 assessed as inhibition of bacterial growth incubated for 24 hrs by Muller hinton broth based dilution assay; assay type: functional
[11] = test system: Staphylococcus aureus; assay: Antibacterial activity against Methicillin-resistant Staphylococcus aureus NCTC10442 assessed as inhibition of bacterial growth incubated for 24 hrs in the presence of 12.5 ug/mL Zn2+ by Muller hinton broth based dilution assay; assay type: functional
[12] = test system: Acinetobacter baumannii; assay: Antibacterial activity against Acinetobacter baumannii R2889 assessed as inhIbition of bacterial growth incubated for 24 hrs by Muller hinton broth based dilution assay; assay type: functional
[13] = test system: Staphylococcus aureus; assay: Antibacterial activity against Methicillin-resistant Staphylococcus aureus NCTC10442 assessed as inhibition of bacterial growth incubated for 24 hrs by Muller hinton broth based dilution assay; assay type: functional
[14] = test system: Staphylococcus aureus; assay: Antibacterial activity against Methicillin-resistant Staphylococcus aureus N315 assessed as inhibition of bacterial growth incubated for 24 hrs in the presence of 12.5 ug/mL Zn2+ by Muller hinton broth based dilution assay; assay type: functional
[15] = test system: Staphylococcus aureus; assay: Antibacterial activity against Methicillin-resistant Staphylococcus aureus N315 assessed as inhibition of bacterial growth incubated for 24 hrs by Muller hinton broth based dilution assay; assay type: functional
[16] = test system: Escherichia coli; assay: Antibacterial activity Escherichia coli ATCC 25922 assessed as inhibition of bacterial growth incubated for 24 hrs in the presence of 12.5 ug/mL Zn2+ by Muller hinton broth based dilution assay; assay type: functional
[17] = test system: Staphylococcus aureus; assay: Induction of drug resistance in Staphylococcus aureus ATCC 29213 assessed as fold change in MIC incubated for 17 days; assay type: functional; settings: time 17.0 day

## OC(COc1cccc2[nH]c3ccccc3c12)CN(Cc1ccccn1)Cc1ccccn1 (centres undefined)
[1]
  MIC: 25 µg/mL (≈ 57 µM)
[2]
  MIC: 6.25 µg/mL
[3]
  HC50 at 1 h: > 200 µg/mL
[4]
  MIC: 12.5 µg/mL
[5]
  MIC: > 50 µg/mL
[6]
  MIC: 50 µg/mL (≈ 114 µM)
[7]
  MIC: 50 µg/mL
[8]
  MIC: > 50 µg/mL
[9]
  HC50 at 1 h: > 200 µg/mL
[10]
  MIC: > 50 µg/mL
[11]
  MIC: 12.5 µg/mL
[12]
  MIC: > 50 µg/mL
[13]
  MIC: 25 µg/mL (≈ 57 µM)
[14]
  MIC: 6.25 µg/mL
[15]
  MIC: 25 µg/mL (≈ 57 µM)
[16]
  MIC: > 50 µg/mL

## FC(F)(F)CCCn1c2ccccc2c2c(OCC3CO3)cccc21 (centres undefined)
[1]
  MIC: > 50 µg/mL
[5]
  MIC: > 50 µg/mL
[6]
  MIC: > 50 µg/mL
[10]
  MIC: > 50 µg/mL
[12]
  MIC: > 50 µg/mL
[13]
  MIC: > 50 µg/mL
[15]
  MIC: > 50 µg/mL

## CCn1cc(C(=O)O)c(=O)c2cc(F)c(N3CCNCC3)cc21
[17]
  fold change (FC): 32

## CCCn1c2ccccc2c2c(OCC3CO3)cccc21 (centres undefined)
[1]
  MIC: > 50 µg/mL
[3]
  HC50 at 1 h: > 200 µg/mL
[5]
  MIC: > 50 µg/mL
[6]
  MIC: > 50 µg/mL
[10]
  MIC: > 50 µg/mL
[12]
  MIC: > 50 µg/mL
[13]
  MIC: > 50 µg/mL
[15]
  MIC: > 50 µg/mL

## CCN(CC)CC(O)COc1cccc2c1c1ccccc1n2CC=C(C)C (centres undefined)
[1]
  MIC: 6.25 µg/mL (≈ 16.4 µM)
[2]
  MIC: 6.25 µg/mL
[4]
  MIC: > 50 µg/mL
[5]
  MIC: > 50 µg/mL
[6]
  MIC: 50 µg/mL (≈ 131 µM)
[7]
  MIC: 50 µg/mL
[8]
  MIC: 25 µg/mL
[10]
  MIC: > 50 µg/mL
[11]
  MIC: 6.25 µg/mL
[12]
  MIC: 25 µg/mL (≈ 65.7 µM)
[13]
  MIC: 6.25 µg/mL (≈ 16.4 µM)
[14]
  MIC: 6.25 µg/mL
[15]
  MIC: 6.25 µg/mL (≈ 16.4 µM)
[16]
  MIC: 50 µg/mL

## CCCCCCCn1c2ccccc2c2c(OCC3CO3)cccc21 (centres undefined)
[1]
  MIC: > 50 µg/mL
[3]
  HC50 at 1 h: > 200 µg/mL
[5]
  MIC: > 50 µg/mL
[6]
  MIC: > 50 µg/mL
[10]
  MIC: > 50 µg/mL
[12]
  MIC: > 50 µg/mL
[13]
  MIC: > 50 µg/mL
[15]
  MIC: > 50 µg/mL

## OC(COc1cccc2c1c1ccccc1n2CCCC(F)(F)F)CN(Cc1ccccn1)Cc1ccccn1 (centres undefined)
[1]
  MIC: 3.12 µg/mL (≈ 5.7 µM)
[2]
  MIC: 1.56 µg/mL
[3]
  HC50 at 1 h: > 200 µg/mL
[4]
  MIC: 12.5 µg/mL
[5]
  MIC: > 50 µg/mL
[6]
  MIC: 6.25 µg/mL (≈ 11.4 µM)
[7]
  MIC: 3.12 µg/mL
[8]
  MIC: 3.12 µg/mL
[9]
  HC50 at 1 h: > 200 µg/mL
[10]
  MIC: 12.5 µg/mL (≈ 22.8 µM)
[11]
  MIC: 0.78 µg/mL
[12]
  MIC: 6.25 µg/mL (≈ 11.4 µM)
[13]
  MIC: 1.56 µg/mL (≈ 2.84 µM)
[14]
  MIC: 1.56 µg/mL
[15]
  MIC: 3.12 µg/mL (≈ 5.7 µM)
[16]
  MIC: 3.12 µg/mL

## CCCCCCCCCn1c2ccccc2c2c(OCC3CO3)cccc21 (centres undefined)
[1]
  MIC: > 50 µg/mL
[3]
  HC50 at 1 h: > 200 µg/mL
[5]
  MIC: > 50 µg/mL
[6]
  MIC: > 50 µg/mL
[10]
  MIC: > 50 µg/mL
[12]
  MIC: > 50 µg/mL
[13]
  MIC: > 50 µg/mL
[15]
  MIC: > 50 µg/mL

## CCCCCn1c2ccccc2c2c(OCC(O)CN(Cc3ccccn3)Cc3ccccn3)cccc21 (centres undefined)
[1]
  MIC: 1.56 µg/mL (≈ 3.07 µM)
[2]
  MIC: 1.56 µg/mL
[3]
  HC50 at 1 h: > 200 µg/mL
[4]
  MIC: 6.25 µg/mL
[5]
  MIC: > 50 µg/mL
[6]
  MIC: 3.12 µg/mL (≈ 6.14 µM)
[7]
  MIC: 3.12 µg/mL
[8]
  MIC: 3.12 µg/mL
[9]
  HC50 at 1 h: > 200 µg/mL
[10]
  MIC: 6.25 µg/mL (≈ 12.3 µM)
[11]
  MIC: 0.78 µg/mL
[12]
  MIC: 3.12 µg/mL (≈ 6.14 µM)
[13]
  MIC: 1.56 µg/mL (≈ 3.07 µM)
[14]
  MIC: 0.78 µg/mL
[15]
  MIC: 1.56 µg/mL (≈ 3.07 µM)
[16]
  MIC: 1.56 µg/mL

## CC(C)=CCn1c2ccccc2c2c(OCC(O)CN(C)C)cccc21 (centres undefined)
[1]
  MIC: 6.25 µg/mL (≈ 17.7 µM)
[2]
  MIC: 6.25 µg/mL
[4]
  MIC: > 50 µg/mL
[5]
  MIC: > 50 µg/mL
[6]
  MIC: 12.5 µg/mL (≈ 35.5 µM)
[7]
  MIC: 12.5 µg/mL
[8]
  MIC: 12.5 µg/mL
[10]
  MIC: 25 µg/mL (≈ 70.9 µM)
[11]
  MIC: 6.25 µg/mL
[12]
  MIC: 12.5 µg/mL (≈ 35.5 µM)
[13]
  MIC: 6.25 µg/mL (≈ 17.7 µM)
[14]
  MIC: 6.25 µg/mL
[15]
  MIC: 6.25 µg/mL (≈ 17.7 µM)
[16]
  MIC: 25 µg/mL

## Cn1c2ccccc2c2c(OCC(O)CN(Cc3ccccn3)Cc3ccccn3)cccc21 (centres undefined)
[1]
  MIC: 12.5 µg/mL (≈ 27.6 µM)
[2]
  MIC: 3.12 µg/mL
[3]
  HC50 at 1 h: > 200 µg/mL
[4]
  MIC: 12.5 µg/mL
[5]
  MIC: > 50 µg/mL
[6]
  MIC: 12.5 µg/mL (≈ 27.6 µM)
[7]
  MIC: 12.5 µg/mL
[8]
  MIC: 25 µg/mL
[9]
  HC50 at 1 h: > 200 µg/mL
[10]
  MIC: 50 µg/mL (≈ 110 µM)
[11]
  MIC: 6.25 µg/mL
[12]
  MIC: 25 µg/mL (≈ 55.2 µM)
[13]
  MIC: 12.5 µg/mL (≈ 27.6 µM)
[14]
  MIC: 1.56 µg/mL
[15]
  MIC: 6.25 µg/mL (≈ 13.8 µM)
[16]
  MIC: 50 µg/mL
